From patent US12668567B2 (Zywie, LLC, priority 2023, dated 2026)
“Also recorded” adds a separate entry of the source.

Experiments:
N2A neuroblastoma cells = experiment: Lysosomal, autophagosomal and TFEB gene expression by qPCR in N2A cells; type: cell-based; conditions: 10 micromolar, FIG. 4
Procedure: To obtain the data, N2A neuroblastoma cells were treated for 3 days with solvent alone (DMSO), ZW-010 (difluoro) or ZW-011 (dimethoxy) at 10 micromolar. Cells were extracted and mRNAs were quantitated by qPCR.
In FIG. 4, N2a Neuroblastoma cells were obtained from the American Tissue Type Collection (ATCC). Cells were plated in a 6-well plate at a density of 100,000 cells/well. Cells were given 24 hours in MEM supplemented with 10% Fetal Bovine Serum (FBS) and then differentiated by serum starvation in MEM for 24 hours. […] Cells were left in treated media for 24 hours then RNA was TRIzol-chloroform extracted. cDNA was created using an iScript cDNA synthesis kit (Bio-Rad), and RT-PCR was run using a SsoAdvanced Universal SYBR Green Supermix kit (Bio-Rad).

[1] = tested on: human induced pluripotent stem cell (iPSC)-derived neurons; experiment: Lysosomal size (Lysotracker, confocal microscopy) in iPSC-derived neurons; type: cell-based; conditions: 14 days, IMARIS software, FIG. 3
Procedure: To obtain the data, human induced pluripotent stem cell (iPSC)-derived neurons were grown in culture for 14 days. Lysosomes were stained with “Lysotracker” and cells were fixed and imaged using confocal micrsosopy. Lysosomal size was measured using IMARIS software (Bitplane).
In FIG. 3 human neuronal inducible Pluripotent Stem Cells (iPSCs) were obtained from the New York Stem Cell Foundation. Cultured cells were differentiated and maintained in proprietary media from Stem Cell Technology. […] Cells were treated for 14 days. Lysosomes were stained with “Lysotracker Green” (Invitrogen) following manufacturer's directions. Cells were fixed and 3D image stacks were acquired using a Leica SP8 laser scanning confocal microscope. Lysosomal size was quantitated using IMARIS 7.7 software (Bitplane).

[2] = Metabolic stability in human liver microsomes; type: in vitro ADME; conditions: for Increase of elimination half-life vs. ambroxol: human liver microsomes; for In vitro elimination half-life t1/2 / Intrinsic clearance CLint-microsomes: human liver microsomes 1 mg/mL protein, 1 μM compound, 37° C., NADPH-regenerating system
Procedure: The compounds were added to preparations of human liver microsomes (200 μL per incubation at a 1 mg/mL protein concentration) such that the final compound concentration was 1 μM. The samples were incubated at 37° C. in the presence of a reduced nicotinamide adenine dinucleotide phosphate (NADPH)-regenerating system (NADP, 1 mM, pH 7.4; glucose-6-phosphate, 5 mM, pH 7.4; glucose-6-phosphate dehydrogenase, 1 unit/mL). A positive control (midazolam, 1 μM, 0.1 mg/mL protein) was incubated concurrently to ensure the microsome preparation was performing as expected. Samples were obtained at t=0, 30, 60, and 120 min and quenched by addition of acetonitrile.
Quenched samples were analyzed by liquid chromatography coupled to tandem mass spectrometry detection (LC/MS-MS). The concentration of the test compounds at each time point were converted to percent remaining relative to the concentration of the compound at time t=0 (which serves as the 100% value). All data points were included in data processing. The rate constant of elimination (kel, min^−1) of each test compound was determined from the time course of disappearance of the parent compound based on fitting the experimental data to a single exponential decay formula (At=Aoe^−kelt, where At is the % remaining at time t, Ao is 100%, […] is the elimination rate constant, and t is time). The in vitro half-life (t1/2) was determined from kel based on the formula: t1/2=ln(2)/kel. The rate constant of elimination was also used to calculate the in vitro intrinsic clearance CLint-microsomes (μL/min/mg protein).

[3] = tested on: iPSC-derived human neurons; experiment: Lysosomal and autophagosomal gene expression by qPCR in iPSC-derived human neurons; type: cell-based; conditions: 3 days, 10 micromolar, FIG. 5
Procedure: To obtain the data, iPSC-derived human Neurons were treated for 3 days with solvent alone (DMSO), ZW-010 (difluoro) or ZW-011 (dimethoxy) at 10 micromolar. Cells were extracted and mRNAs were quantitated by qPCR.
In FIG. 5, Human iPSC-derived neurons (as in FIG. 3) were plated on two 6-well plates at a density of 150,000 cells/well. […] Cells were treated for 3 days and cells were TRIzol-chloroform extracted. cDNA was created using an iScript cDNA synthesis kit (Bio-Rad), and RT-PCR was run using a SsoAdvanced Universal SYBR Green Supermix kit (Bio-Rad).

[4] = tested on: iPSC-derived human neurons bearing the Swedish amyloid precursor protein mutation; experiment: Secretion of Abeta40 and Abeta42 into media (ELISA); type: cell-based; conditions: 5 days; for secretion of Abeta40 into the media / secretion of Abeta42 into the media: 10 micromolar; for secretion of Abeta40 into the media: FIG. 7A; for secretion of Abeta42 into the media: FIG. 7B
Source text: Media was collected and analysed by ELISA assay.
Media was taken and analyzed by ELISA (Invitrogen) for Abeta 40 (FIG. 7A) and 42 (FIG. 7B) following manufacturer's instructions.

mice = experiment: Novel place recognition (cognitive acuity test at 7 months); type: in vivo, mouse; conditions: 150 mg/kg/day and 50 mg/kg/day vs. control, tested at 7 months; FIG. 9
Procedure: A Discrimination Index (DI)=(tnovel-tfamiliar)/(tnovel+tfamiliar) was used to assess the time spent exploring near the object in a novel place (“tnovel”) vs. the total exploration time overall. Discrimination Index scores greater than zero are considered to indicate good place recognition memory.
Three groups of mice, with at least 13 mice in each group, are given a cognitive acuity test at 7 months. The three groups of mice are: “High Dose” Group (150 mg/kg/day of a compound of the present invention), “Low Dose” (50 mg/kg/day of a compound of the present invention) Group, and a Control Group (not administered a compound of the present invention).

mouse B6D2F1 model = experiment: Lifespan study with chow supplement; type: in vivo; conditions: 50 mg/kg daily as chow supplement
Procedure: Weaned male BDF1 mice raised from pups, housed 1-4 animals per cage and fed Teklad 7013 NIH-31 rodent chow and water ad libitum, at 2 months of age, are divided into two roughly equal groups of 22-25 animals. One group continues to be fed the Teklad chow as before (control); the other group is switched to Teklad chow formulated with any one of compounds 1-6 at 300 mg per kg of chow. This formulation was designed, based on the average ad libitum chow consumption of an adult male BDF1 mouse, to deliver 50 mg/kg/day (based on body mass) to each mouse in the treated group. Mice are maintained on this diet until they die naturally or until they reach 16 months of age, at which time the experiment ends. During the course of the experiment, all mice are periodically removed from their cages and handled in the course of subjecting them to various sensorimotor, cognitive, and/or behavioral tests.

[5] = mouse, in vivo, po, 10 mg/kg
Procedure: Both compounds were dosed at 10 mg/kg (free base equivalent) as 1 mg/mL clear solutions in 5:95 v/v dimethylsulfoxide (DMSO)/saline. Volumes administered were calculated for each animal based on their most recent weight. Animals were fasted overnight prior to drug administration and food and water were returned 4 h after dose administration. Mice (N=3 per group) were sacrificed at 0.15, 0.25, 1, 2, 4, 8, and 24 h post-dose. Blood (K2EDTA collection tubes) and brain were collected from each animal at each time point. Plasma (isolated from blood samples by centrifugation) and brain homogenates (obtained by homogenization with 50% methanol in water in a 1:2 w/v ratio) were used to prepare samples for quantitative analysis (internal standard: verapamil) by HPLC/MS-MS (C18 column, gradient elution; standard curves from 1 to 3,000 ng/mL; electrospray, positive ionization mode, multiple reaction monitoring—MRM—mode).

TFEB = TFEB transfer to the nucleus (immunostaining, nuclear puncta); type: cell-based; conditions: human iPSC-derived neurons, 14 days; FIG. 6
Procedure: To obtain the data, human iPSC-derived neurons were treated with difluor-substituted-ambroxol for 14 days. Cells were fixed and endogenous TFEB was immunostained and nuclei were identified by DAPI staining. Cells were imaged on a Leica SP8 Confocal Microscope. TFEB signal appeared as puncta throughout the cytoplasm and nucleus (FIG. 6B). TFEB puncta within the nucleus were quantitated using IMARIS software (Bitplane).
Human iPSC-derived neurons were treated with difluoro-substituted-ambroxol for 14 days. Cells were fixed and endogenous TFEB was immunostained. Nuclei were identified by DAPI staining. Cells were imaged as 3D stacks on a Leica SP8 Confocal Microscope. TFEB signal appeared as puncta throughout the cytoplasm and nucleus (FIG. 6A). TFEB puncta within the nucleus were quantitated using IMARIS 7.7 software (Bitplane) (FIG. 6B).

Row | Increase of elimination half-life vs. ambroxol [2] | In vitro elimination half-life t1/2 [2] [h] | Intrinsic clearance CLint-microsomes [2] [μL/min/mg protein] | AUClast Brain/Plasma [5] | AUClast, brain [5] [ng·h/g] | AUClast, plasma [5] [ng·h/mL] | molar exposure AUClast [5] [µM·h] | SMILES | lysosomal, autophagosomal and TFEB gene expression (LAMP1, Cathepsin B, GBA1, LC3, TFEB mRNA) (N2A neuroblastoma cells) | lysosomal size [1] | lysosomal and autophagosomal gene expression (LAMP1, Cathepsin D, Cathepsin B, GBA1, LC3, TFEB mRNA) [3] | secretion of Abeta40 into the media [4] | secretion of Abeta42 into the media [4] | cognitive acuity (novel place recognition) (mice) | lifespan (mouse B6D2F1 model; starting at 2 months of age, FIG. 8) | healthspan (mouse B6D2F1 model; surviving animals when sacrificed) | secretion of beta amyloid species (Abeta 40 and 42) ([4]; FIG. 7A-B) | TFEB transfer to the nucleus (TFEB)
1 | increased by more than two-fold | >2 | <5.775 | – | – | – | – | COc1cc(CN[C@H]2CC[C@H](O)CC2)c(N)c(OC)c1 [ZW-011, trans-4-{[(2-amino-3.5-dimethoxyphenyl)methyl]amino}cyclohexanol] | increased transcription of lysosome-associated LAMP1, Cathepsin B, GBA1, and autophagy-associated LC3 and TFEB to a greater extent than ambroxol; also recorded: drive lysosomal and autophagosomal and TFEB gene expression | increase lysosomal size | increased transcription of lysosome-associated LAMP1, Cathepsin D, Cathepsin B, GBA1, and autophagy-associated LC3 and TFEB to a greater extent than ambroxol; also recorded: drive lysosomal and autophagosomal gene expression to a greater degree in iPSC-derived human neurons compared with ambroxol | decreased secretion | decreased secretion | – | – | – | – | –
2 | – | – | – | – | – | – | – | Nc1c(Br)cc(Br)cc1CN[C@H]1CC[C@H](O)CC1 [ambroxol, trans-4-((2-amino-3,5-dibromobenzyl)amino) cyclohexanol] | – | – | – | – | – | dose-related improvement in cognitive acuity | able to increase lifespan | healthspan was extended in parallel with lifespan | effective in reducing secretion of beta amyloid species | –
3 | increased by more than two-fold | >2 | <5.775 | 3.6 | 10774 | 2991 | 42.0 | Nc1c(F)cc(F)cc1CN[C@H]1CC[C@H](O)CC1 [ZW-010, trans-{4-[(2-amino-3.5-difluorophenyl)methyl]amino}cyclohexanol] | increased transcription of lysosome-associated LAMP1, Cathepsin B, GBA1, and autophagy-associated LC3 and TFEB to a greater extent than ambroxol; also recorded: drive lysosomal and autophagosomal and TFEB gene expression | increase lysosomal size | increased transcription of lysosome-associated LAMP1, Cathepsin D, Cathepsin B, GBA1, and autophagy-associated LC3 and TFEB to a greater extent than ambroxol; also recorded: drive lysosomal and autophagosomal gene expression to a greater degree in iPSC-derived human neurons compared with ambroxol | decreased secretion | decreased secretion | – | – | – | – | induces TFEB transfer to the nucleus
